{
  "source": "patent US20080287375A1",
  "about": "“Selective Glycosidase Inhibitors, Methods of Making Inhibitors, and Uses Thereof” (SIMON FRASER UNIVERSITY, priority 2005, published 2008)",
  "key": {"[1]": {"tested_on": "O-GlcNAc-modified proteins in COS-7 cells", "experiment": "Western blot of O-GlcNAc-modified proteins in COS-7 cells cultured with inhibitors", "assay_type": "cell-based", "settings": "50 μM inhibitor", "description": "(§1) COS-7 cells were cultured in DMEM medium (Invitrogen) supplemented with 5-10% FBS (Invitrogen). Aliquots of inhibitors (50 μL of a stock in 95% ethanol) were delivered onto tissue culture plates and the ethanol was evaporated. The cells were incubated at 37° C. for 40 hours at which time they reached approximately 80% confluence. […] COS-7 cells were cultured to 25% confluence in 5% FBS and an aliquot (100 μL) of inhibitor dissolved in media and filter sterilized was added to each plate to yield a final concentration of 50 μM of inhibitor. COS-7 cells (2×10 cm plates) were harvested at the appropriate times by scraping and were pooled by centrifugation (200×g, 10 min). Cells were washed once with PBS, pH 7.0 (10 mL) and pelleted (200×g, 10 min). The cells could be frozen at −80° C. at this point. Control cultures without inhibitors were treated in the same manner.\nA culture of control cells was treated in the same manner as follows but the cultures contained no inhibitor. Cells were harvested as described above. Frozen cells were thawed at 4° C., and cold lysis buffer (1 mL of 50 mM Tris, pH 8.0 containing 150 mM NaCl, 1 mM EDTA, 1 mM PMSF, 1% NP-40, 0.5% sodium deoxycholate, and 1 mM of inhibitor 90) was added. After 10 minutes at 4° C. the solution was centrifuged at 14,000 rpm in an Eppendorf 5415C microcentrifuge and the supernatant was collected. SDS/PAGE loading buffer was added to an aliquot (15 μL) of each sample, and after heating at 96° C. aliquots were loaded onto 10% or 12% Tris-HCl polyacrylamide gels. After electrophoresis, the samples were electroblotted to nitrocellulose membrane (0.45 μm, Bio-Rad). Transfer was verified by visual inspection of the transfer of prestained markers (Dual Colour Precision Plus Protein Standard—Biorad). The membrane was blocked by using 5% BSA (fraction V, Sigma) in PBS (blocking buffer A for samples probed with mouse anti-O-GlcNAc monoclonal IgM antibody (MAb CTD 110.6—Covance)) or 5% low-fat dry powdered milk (blocking buffer B for samples probed with anti-β-actin), pH 7.4, containing 0.1% Tween 20 for 1 h at room temperature or overnight at 4° C. The blocking solution was decanted, and a solution of blocking buffer A containing MAb CTD 110.6 (1:2500 of the stock) or blocking buffer B containing mouse monoclonal anti-β-actin IgG (Clone AC-40—Sigma) was added (1:1000 dilution) as appropriate. The membrane was incubated at room temperature for 1 h or overnight at 4° C. after which the blocking buffer was decanted and the membrane was rinsed with PBS, pH 7.4, containing 0.1% Tween 20 (wash buffer). Membranes were then rinsed for 2×5 min and 3×15 min with wash buffer. For immunological detection of O-GlcNAc, the membrane was incubated in blocking buffer A for 1 hour at RT and, after washing, the membrane was incubated with a secondary goat anti-mouse-IgM-HRP-conjugate (1:2500, Santa Cruz Biotech) for one hour at RT or 4° C. overnight in blocking solution. For detection of β-actin levels, the membrane was incubated with a secondary goat anti-mouse-IgG-HRP conjugate (1:100000, Sigma) for one hour at RT or 4° C. overnight in blocking solution B. Membranes were washed and detection of membrane bound goat anti-mouse-IgG-HRP conjugate was accomplished by chemiluminescent detection using the SuperSignal West Pico Chemiluminescent Detection Kit (Pierce) and film (Kodak Biomax MR)."}, "COS-7 cells": {"tested_on": "COS-7 cells", "experiment": "Proliferation rate and morphology of COS-7 cells incubated with inhibitors", "assay_type": "cell-based", "settings": "50 μM inhibitor", "description": "as §1"}, "[2]": {"experiment": "Intravenous glucose tolerance test (IVGTT) in rats", "assay_type": "in vivo, rat", "settings": "50 mg kg^−1 tail vein", "description": "Eight give-week old healthy Sprague-Dawley rats (Charles River) were caged in pairs. The animals were allowed to acclimatize to their new surroundings at the Simon Fraser University Animal Care Facilities (SFU ACF) for one week. At 3:00 pm, four rats were given a tail vein injection of 400 μl of inhibitor 9c dissolved in PBS buffer (pH 7.4) at a dose of 50 mg kg^−1. The remaining four rats were given a tail vein injection of 400 μl of PBS as a control. All solutions were pre-sterilized through a 0.2 μm filter (Millipore) and injected with 0.5 mL syringes containing a 28 gauge×0.5″ needle (Terumo) as bolus over 10 seconds. Food was withdrawn at approximately 11:00 pm. At 8:30 am the following morning, the rats were given a second injection. After three hours the rats were anesthetized with isoflurane and a 100 μL blood sample was taken from the jugular vein to measure the fasting blood glucose levels. An intravenous glucose tolerance test (IVGTT) was then performed. A 0.5 mL injection of a 50% w/v solution of glucose dissolved in PBS (pre-sterilized) was administered via the tail vein over 30 seconds. At 10, 20, 30, 40, 60, and 90 minutes after the injection of glucose, a 100 μL sample of blood was taken from the jugular vein. […] The soluble cell extract was then analyzed for levels O-GlcNAc modified proteins using Western blot analysis as described above for the cell studies."}},
  "note": "Entries after “also recorded” stand apart in the source; their conditions may differ.",
  "data": [
    {"smiles": "CCCC1=N[C@@H]2[C@@H](O)[C@H](O)[C@@H](CO)O[C@@H]2S1", "note": "[Compound 9c, 1,2-dideoxy-2′-propyl-α-D-glucopyranoso-[2,1-d]-2′-thiazoline]", "values": [
      {"measurement": "cellular levels of O-GlcNAc-modified proteins compared to control", "setting": "[1]; 40 hours, Western blot", "result": "Marked increases; also recorded: increase in cellular levels of O-GlcNAc-modified proteins"},
      {"measurement": "levels of O-GlcNAc-modified proteins after one hour of exposure", "setting": "[1]; one hour", "result": "increases in levels of O-GlcNAc-modified proteins were observed"},
      {"measurement": "levels of O-GlcNAc-modified proteins as a function of time", "setting": "[1]; over 40 hours", "result": "clear time dependent increase"},
      {"measurement": "proliferation rate or morphology compared to control cells", "setting": "COS-7 cells", "result": "no abnormalities in proliferation rate or morphology"},
      {"measurement": "levels of O-GlcNAc modified proteins in rats of the IVGTT", "setting": "[2]; Western blot", "result": "increased levels"},
      {"measurement": "glucose clearance rate in IVGTT", "setting": "[2]; short term exposure (<24 hours), 1 g kg^−1 glucose challenge", "result": "does not affect the glucose clearance rate"}
    ]}
  ]
}
